Source: PubChem BioAssay AID1963853 (Molecular Pharmacology Branch, DTP, NCI, 2024)

Test system: 266295-075-R-J1-PDC spheroid viability
Assay: Anticancer human tumor 266295-075-R-J1-PDC patient-derived head and neck squamous carcinoma cell line growth inhibition [POLQ]
Conditions: spheroids with HUVEC and MSC; for IC50: curve of first compound; for viability, T/C: stronger effect = lower value
Procedure, shortened: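 Growth inhibition in 3D: complex spheroids (tumor PDC, HUVEC, MSC) treated with POLQ inhibitor combinations; where Cmax unknown, highest tested concentration 10 microM, except SN-38 at 1 microM.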

[1] = second compound 0.0316 µM, first compound 0.0316 µM
[2] = second compound 0.0316 µM, first compound 0.1 µM
[3] = second compound 0.0316 µM, first compound 0.316 µM
[4] = second compound 0.0316 µM, first compound 1 µM
[5] = second compound 0.1 µM, first compound 0.0316 µM
[6] = second compound 0.1 µM, first compound 0.1 µM
[7] = second compound 0.1 µM, first compound 0.316 µM
[8] = second compound 0.1 µM, first compound 1 µM
[9] = second compound 0.316 µM, first compound 0.0316 µM
[10] = second compound 0.316 µM, first compound 0.1 µM
[11] = second compound 0.316 µM, first compound 0.316 µM
[12] = second compound 0.316 µM, first compound 1 µM
[13] = second compound 1 µM, first compound 0.0316 µM
[14] = second compound 1 µM, first compound 0.1 µM
[15] = second compound 1 µM, first compound 0.316 µM
[16] = second compound 1 µM, first compound 1 µM
[17] = second compound 3.16 µM, first compound 0.0316 µM
[18] = second compound 3.16 µM, first compound 0.1 µM
[19] = second compound 3.16 µM, first compound 0.316 µM
[20] = second compound 3.16 µM, first compound 1 µM
[21] = second compound 10 µM, first compound 0.0316 µM
[22] = second compound 10 µM, first compound 0.1 µM
[23] = second compound 10 µM, first compound 0.316 µM
[24] = second compound 10 µM, first compound 1 µM
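Note: spheroids exposed to compounds for seven days before readout.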

C=CCn1c(=O)c2cnc(Nc3ccc(N4CCN(C)CC4)cc3)nc2n1-c1cccc(C(C)(C)O)n1 + COC1C(OC(N)=O)C(O)C(Oc2ccc3c(O)c(NC(=O)c4ccc(O)c(CC=C(C)C)c4)c(=O)oc3c2C)OC1(C)C
IC50 (second compound 0.0316 µM): > 1 µM | IC50 (second compound 0.1 µM): > 1 µM | IC50 (second compound 0.316 µM): > 1 µM | IC50 (second compound 1 µM): > 1 µM | IC50 (second compound 3.16 µM): > 1 µM | IC50 (second compound 10 µM): > 1 µM | viability, T/C (second compound 0.0316 µM, first compound 0.00316 µM): 106% | viability, T/C (second compound 0.0316 µM, first compound 0.01 µM): 111% | viability, T/C [1]: 103% | viability, T/C [2]: 102% | viability, T/C [3]: 91.4% | viability, T/C [4]: 65.5% | viability, T/C (second compound 0.1 µM, first compound 0.00316 µM): 112% | viability, T/C (second compound 0.1 µM, first compound 0.01 µM): 94.6% | viability, T/C [5]: 82.5% | viability, T/C [6]: 82.7% | viability, T/C [7]: 77.2% | viability, T/C [8]: 95.6% | viability, T/C (second compound 0.316 µM, first compound 0.00316 µM): 102% | viability, T/C (second compound 0.316 µM, first compound 0.01 µM): 93.8% | viability, T/C [9]: 95% | viability, T/C [10]: 104% | viability, T/C [11]: 87.4% | viability, T/C [12]: 70.6% | viability, T/C (second compound 1 µM, first compound 0.00316 µM): 97.1% | viability, T/C (second compound 1 µM, first compound 0.01 µM): 85.9% | viability, T/C [13]: 92% | viability, T/C [14]: 95.8% | viability, T/C [15]: 91.3% | viability, T/C [16]: 66.3% | viability, T/C (second compound 3.16 µM, first compound 0.00316 µM): 96% | viability, T/C (second compound 3.16 µM, first compound 0.01 µM): 90.8% | viability, T/C [17]: 96.7% | viability, T/C [18]: 98.3% | viability, T/C [19]: 88.6% | viability, T/C [20]: 65.3% | viability, T/C (second compound 10 µM, first compound 0.00316 µM): 104% | viability, T/C (second compound 10 µM, first compound 0.01 µM): 88.9% | viability, T/C [21]: 102% | viability, T/C [22]: 87.2% | viability, T/C [23]: 87% | viability, T/C [24]: 73.4%

C=CC(=O)N1CCN(c2nc(=O)n(-c3c(C)ccnc3C(C)C)c3nc(-c4c(O)cccc4F)c(F)cc23)C(C)C1 (centres undefined) + Nc1ccc(C#CCN(C(=O)Cc2ncc(C(F)(F)F)cc2C(F)(F)F)c2ccc(F)cc2)nn1
IC50 (second compound 0.0316 µM): > 10 µM | IC50 (second compound 0.1 µM): > 10 µM | IC50 (second compound 0.316 µM): > 10 µM | IC50 (second compound 1 µM): > 10 µM | IC50 (second compound 3.16 µM): > 10 µM | IC50 (second compound 10 µM): > 10 µM | viability, T/C [1]: 108% | viability, T/C [2]: 96.4% | viability, T/C [3]: 101% | viability, T/C [4]: 96.8% | viability, T/C (second compound 0.0316 µM, first compound 3.16 µM): 112% | viability, T/C (second compound 0.0316 µM, first compound 10 µM): 107% | viability, T/C [5]: 96% | viability, T/C [6]: 106% | viability, T/C [7]: 100% | viability, T/C [8]: 111% | viability, T/C (second compound 0.1 µM, first compound 3.16 µM): 108% | viability, T/C (second compound 0.1 µM, first compound 10 µM): 112% | viability, T/C [9]: 89.8% | viability, T/C [10]: 107% | viability, T/C [11]: 90.6% | viability, T/C [12]: 107% | viability, T/C (second compound 0.316 µM, first compound 3.16 µM): 145% | viability, T/C (second compound 0.316 µM, first compound 10 µM): 125% | viability, T/C [13]: 101% | viability, T/C [14]: 95.5% | viability, T/C [15]: 133% | viability, T/C [16]: 101% | viability, T/C (second compound 1 µM, first compound 3.16 µM): 124% | viability, T/C (second compound 1 µM, first compound 10 µM): 73.9% | viability, T/C [17]: 98.4% | viability, T/C [18]: 93.8% | viability, T/C [19]: 94.2% | viability, T/C [20]: 108% | viability, T/C (second compound 3.16 µM, first compound 3.16 µM): 117% | viability, T/C (second compound 3.16 µM, first compound 10 µM): 103% | viability, T/C [21]: 106% | viability, T/C [22]: 72.8% | viability, T/C [23]: 92.3% | viability, T/C [24]: 106% | viability, T/C (second compound 10 µM, first compound 3.16 µM): 105% | viability, T/C (second compound 10 µM, first compound 10 µM): 108%
